Results published in ChEMBL document CHEMBL2331082, “Cinnamic acid derivatives as inhibitors for chorismatases and isochorismatases” (Bioorg Med Chem Lett, 2013).

What was measured:
Chorismatase [1] = target: T1, Chorismatase (Streptomyces hygroscopicus subsp. ascomyceticus, UniProt Q9KID9); assay: Inhibition of Streptomyces hygroscopicus subsp. ascomyceticus chorismatase FkbO expressed in Escherichia coli BL21(DE3) using chorismate as substrate after 5 mins by LDH-coupled spectrophotometric assay
T1 sequence (Q9KID9 whole entry): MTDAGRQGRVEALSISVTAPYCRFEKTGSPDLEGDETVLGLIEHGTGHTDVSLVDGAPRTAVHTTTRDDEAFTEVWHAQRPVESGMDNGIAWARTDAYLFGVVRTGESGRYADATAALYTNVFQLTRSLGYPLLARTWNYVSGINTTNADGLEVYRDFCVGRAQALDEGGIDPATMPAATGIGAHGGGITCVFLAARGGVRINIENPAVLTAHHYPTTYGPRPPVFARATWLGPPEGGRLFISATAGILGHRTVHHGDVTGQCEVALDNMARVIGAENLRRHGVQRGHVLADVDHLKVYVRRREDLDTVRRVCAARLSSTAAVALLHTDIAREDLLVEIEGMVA

Chorismatase [2] = target: T1, Chorismatase; assay: Competitive inhibition of Streptomyces hygroscopicus subsp. ascomyceticus chorismatase FkbO expressed in Escherichia coli BL21(DE3) using chorismate as substrate
[3] = Inhibition of Escherichia coli EntB expressed in Escherichia coli BL21(DE3) using chorismate as substrate after 5 mins by LDH-coupled spectrophotometric assay
[4] = Competitive inhibition of Escherichia coli EntB expressed in Escherichia coli BL21(DE3) using chorismate as substrate
[5] = Inhibition of Streptomyces hygroscopicus hyg5 expressed in Escherichia coli BL21(DE3) using chorismate as substrate after 5 mins by LDH-coupled spectrophotometric assay

IC50 (Chorismatase [1]) [µM] | Ki (Chorismatase [2]) [µM] | IC50 [3] [µM] | IC50 [5] [µM] | SMILES | Ki [4] [µM]
45000 | 19600 | 209 | 68500 | O=C(O)/C=C/c1cccc(C(=O)O)c1 | 122
1090 | 1020 | 472 | 1250 | O=C(O)CCc1cccc(C(=O)O)c1 | 282
